Results on 13 compounds are retold here after patent publication US20230406885A1, “CYCLIC PEPTIDES FOR TRAPPING INTERLEUKIN-1 BETA” (MERCK SHARP & DOHME LLC, priority 2022, published 2023).

pIC50: −log10 of the molar value. *1 amine or outer side, *2 acyl side, *3 side chain or, on linkers, in order; H or OH if unused. Where a SMILES comes first, the peptide text is derived from it. [ ]: non-standard residue; d: D form. Trp(4-Cl)(βS-Me) = C[C@@H](c1c[nH]c2cccc(Cl)c12)[C@H](N)C(=O)O; Bip(4'-COOH) = N[C@@H](Cc1ccc(-c2ccc(C(=O)O)cc2)cc1)C(=O)O; Phe(4-COOH) = N[C@@H](Cc1ccc(C(=O)O)cc1)C(=O)O; Pro(4R-NH2) = N[C@H]1CN[C@H](C(=O)O)C1; X7 = O=C([C@H](CCN1CCOCC1)N[*:1])[*:2]; AEF = NCCOc1ccc(C[C@H](N)C(=O)O)cc1; hTyr = N[C@@H](CCc1ccc(O)cc1)C(=O)O; hPhe = N[C@@H](CCc1ccccc1)C(=O)O; Dap(Me2) = CN(C)C[C@H](N)C(=O)O; dDab = NCC[C@@H](N)C(=O)O; hSer = N[C@@H](CCO)C(=O)O; dNMeA = CN[C@H](C)C(=O)O; Dab = NCC[C@H](N)C(=O)O; Dap = NC[C@H](N)C(=O)O

For this test, the target named is T1, Recombinant human IL-1β (Homo sapiens, UniProt P01584).
T1 construct: purchased BioLegend 579404
T1 sequence (P01584 117-269): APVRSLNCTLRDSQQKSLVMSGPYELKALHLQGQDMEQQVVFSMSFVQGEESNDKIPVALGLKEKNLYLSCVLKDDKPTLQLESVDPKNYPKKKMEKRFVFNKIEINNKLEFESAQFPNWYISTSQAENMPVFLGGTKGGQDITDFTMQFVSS
Nature of the test: IL-6 assay in MRC5 cells: inhibition of IL-1β induced IL-6 secretion (AlphaLISA). Format: cell-based. The conditions noted are these: inhibition of IL-1β induced IL-6 secretion in MRC5 cells; read-out: MRC5 IC50. The gist of the method: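 IL-1β at 2×EC80 in seeding medium (EMEM, 0.025% BSA) preincubated 1 h at ambient temperature with compound, then 3000 MRC5 cells/well added and incubated overnight at 37 °C, 5% CO2. IL-6 in conditioned medium quantified by AlphaLISA; IC50 from 4-parameter logistic fit.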
Take `CC(=O)NCCOc1ccc(C[C@@H]2NC(=O)[C@H](CCc3ccc(O)cc3)NC(=O)[C@@H](C)NC(=O)[C@H](CO)NC(=O)[C@H](CCCCN)NC(=O)[C@H](Cc3ccc(-c4ccc(C(=O)O)cc4)cc3)NC(=O)CNC(=O)[C@@H](C)N(C)C(=O)[C@H](CC(=O)O)NC(=O)[C@H]([C@@H](C)c3c[nH]c4cccc(Cl)c34)NC(=O)[C@@H]3C[C@@H](N)CN3C(=O)CNC(=O)[C@H](Cc3ccc(C(=O)O)cc3)NC(=O)[C@H](Cc3c[nH]c4ccccc34)NC2=O)cc1` [Example 138] (cyclo([AEF](Ac)W[Phe(4-COOH)]G[Pro(4R-NH2)][Trp(4-Cl)(βS-Me)]D[dNMeA]G[Bip(4'-COOH)]KS[dA][hTyr])): the negative-log IC50 (pIC50) is 9.67.
Regarding `CC(=O)NCCOc1ccc(C[C@@H]2NC(=O)[C@H](CCc3ccc(O)cc3)NC(=O)[C@@H](CCN)NC(=O)[C@H](CO)NC(=O)[C@H](CCCCN)NC(=O)[C@H](Cc3ccc(-c4ccc(C(=O)O)cc4)cc3)NC(=O)CNC(=O)[C@@H](C)N(C)C(=O)[C@H](CC(=O)O)NC(=O)[C@H]([C@@H](C)c3c[nH]c4cccc(Cl)c34)NC(=O)[C@@H]3C[C@@H](N)CN3C(=O)CNC(=O)[C@H](Cc3ccc(C(=O)O)cc3)NC(=O)[C@H](Cc3c[nH]c4ccccc34)NC2=O)cc1` [Example 139] (cyclo([AEF](Ac)W[Phe(4-COOH)]G[Pro(4R-NH2)][Trp(4-Cl)(βS-Me)]D[dNMeA]G[Bip(4'-COOH)]KS[dDab][hTyr])), the negative logarithm of the IC50 (pIC50) is 9.88.
`CC(=O)NCCOc1ccc(C[C@@H]2NC(=O)CNC(=O)[C@@H](C)NC(=O)[C@H](CCN3CCOCC3)NC(=O)[C@H](Cc3c[nH]c4ccccc34)NC(=O)[C@H](Cc3ccc(-c4ccc(C(=O)O)cc4)cc3)NC(=O)CNC(=O)[C@@H](C)N(C)C(=O)[C@H](CC(=O)O)NC(=O)[C@H]([C@@H](C)c3c[nH]c4cccc(Cl)c34)NC(=O)[C@@H]3C[C@@H](N)CN3C(=O)CNC(=O)[C@H](Cc3ccc(C(=O)O)cc3)NC(=O)[C@H](Cc3c[nH]c4ccccc34)NC2=O)cc1` [Example 140] (cyclo([AEF](Ac)W[Phe(4-COOH)]G[Pro(4R-NH2)][Trp(4-Cl)(βS-Me)]D[dNMeA]G[Bip(4'-COOH)]W[X7][dA]G)): the pIC50 is 9.29.
In the case of `CC(=O)NCCOc1ccc(C[C@@H]2NC(=O)[C@H](CCc3ccc(O)cc3)NC(=O)[C@@H](C)NC(=O)[C@H](CCN3CCOCC3)NC(=O)[C@H](Cc3c[nH]c4ccccc34)NC(=O)[C@H](Cc3ccc(-c4ccc(C(=O)O)cc4)cc3)NC(=O)CNC(=O)[C@@H](C)N(C)C(=O)[C@H](CC(=O)O)NC(=O)[C@H]([C@@H](C)c3c[nH]c4cccc(Cl)c34)NC(=O)[C@@H]3C[C@@H](N)CN3C(=O)CNC(=O)[C@H](Cc3ccc(C(=O)O)cc3)NC(=O)[C@H](Cc3c[nH]c4ccccc34)NC2=O)cc1` [Example 141] (cyclo([AEF](Ac)W[Phe(4-COOH)]G[Pro(4R-NH2)][Trp(4-Cl)(βS-Me)]D[dNMeA]G[Bip(4'-COOH)]W[X7][dA][hTyr])), the negative-log IC50 (pIC50) was 9.75.
Take `CC(=O)NCCOc1ccc(C[C@@H]2NC(=O)[C@H](CCc3ccccc3)NC(=O)[C@@H](C)NC(=O)[C@H](CCN)NC(=O)[C@H](Cc3c[nH]c4ccccc34)NC(=O)[C@H](Cc3ccc(-c4ccc(C(=O)O)cc4)cc3)NC(=O)CNC(=O)[C@@H](C)N(C)C(=O)[C@H](CC(=O)O)NC(=O)[C@H]([C@@H](C)c3c[nH]c4cccc(Cl)c34)NC(=O)[C@@H]3C[C@@H](N)CN3C(=O)CNC(=O)[C@H](Cc3ccc(C(=O)O)cc3)NC(=O)[C@H](Cc3c[nH]c4ccccc34)NC2=O)cc1` [Example 142] (cyclo([AEF](Ac)W[Phe(4-COOH)]G[Pro(4R-NH2)][Trp(4-Cl)(βS-Me)]D[dNMeA]G[Bip(4'-COOH)]W[Dab][dA][hPhe])): the negative-log IC50 (pIC50) is 9.80.
With `CC(=O)NCCOc1ccc(C[C@@H]2NC(=O)[C@H](CCc3ccc(O)cc3)NC(=O)[C@@H](C)NC(=O)[C@H](CCN)NC(=O)[C@H](Cc3c[nH]c4ccccc34)NC(=O)[C@H](Cc3ccc(-c4ccc(C(=O)O)cc4)cc3)NC(=O)CNC(=O)[C@@H](C)N(C)C(=O)[C@H](CC(=O)O)NC(=O)[C@H]([C@@H](C)c3c[nH]c4cccc(Cl)c34)NC(=O)[C@@H]3C[C@@H](N)CN3C(=O)CNC(=O)[C@H](Cc3ccc(C(=O)O)cc3)NC(=O)[C@H](Cc3c[nH]c4ccccc34)NC2=O)cc1` [Example 143] (cyclo([AEF](Ac)W[Phe(4-COOH)]G[Pro(4R-NH2)][Trp(4-Cl)(βS-Me)]D[dNMeA]G[Bip(4'-COOH)]W[Dab][dA][hTyr])) the figure was 9.64.
With `CC(=O)NCCOc1ccc(C[C@@H]2NC(=O)[C@H](CCc3ccccc3)NC(=O)[C@@H](C)NC(=O)[C@H](CN)NC(=O)[C@H](Cc3c[nH]c4ccccc34)NC(=O)[C@H](Cc3ccc(-c4ccc(C(=O)O)cc4)cc3)NC(=O)CNC(=O)[C@@H](C)N(C)C(=O)[C@H](CC(=O)O)NC(=O)[C@H]([C@@H](C)c3c[nH]c4cccc(Cl)c34)NC(=O)[C@@H]3C[C@@H](N)CN3C(=O)CNC(=O)[C@H](Cc3ccc(C(=O)O)cc3)NC(=O)[C@H](Cc3c[nH]c4ccccc34)NC2=O)cc1` [Example 144] (cyclo([AEF](Ac)W[Phe(4-COOH)]G[Pro(4R-NH2)][Trp(4-Cl)(βS-Me)]D[dNMeA]G[Bip(4'-COOH)]W[Dap][dA][hPhe])) the figure was 10.13; with `CC(=O)NCCOc1ccc(C[C@@H]2NC(=O)[C@H](CCc3ccc(O)cc3)NC(=O)[C@@H](C)NC(=O)[C@H](CN)NC(=O)[C@H](Cc3c[nH]c4ccccc34)NC(=O)[C@H](Cc3ccc(-c4ccc(C(=O)O)cc4)cc3)NC(=O)CNC(=O)[C@@H](C)N(C)C(=O)[C@H](CC(=O)O)NC(=O)[C@H]([C@@H](C)c3c[nH]c4cccc(Cl)c34)NC(=O)[C@@H]3C[C@@H](N)CN3C(=O)CNC(=O)[C@H](Cc3ccc(C(=O)O)cc3)NC(=O)[C@H](Cc3c[nH]c4ccccc34)NC2=O)cc1` [Example 145] (cyclo([AEF](Ac)W[Phe(4-COOH)]G[Pro(4R-NH2)][Trp(4-Cl)(βS-Me)]D[dNMeA]G[Bip(4'-COOH)]W[Dap][dA][hTyr])), 10.13; with `CC(=O)NCCOc1ccc(C[C@@H]2NC(=O)[C@H](CCc3ccc(O)cc3)NC(=O)[C@@H](C)NC(=O)[C@H](CN(C)C)NC(=O)[C@H](Cc3c[nH]c4ccccc34)NC(=O)[C@H](Cc3ccc(-c4ccc(C(=O)O)cc4)cc3)NC(=O)CNC(=O)[C@@H](C)N(C)C(=O)[C@H](CC(=O)O)NC(=O)[C@H]([C@@H](C)c3c[nH]c4cccc(Cl)c34)NC(=O)[C@@H]3C[C@@H](N)CN3C(=O)CNC(=O)[C@H](Cc3ccc(C(=O)O)cc3)NC(=O)[C@H](Cc3c[nH]c4ccccc34)NC2=O)cc1` [Example 146] (cyclo([AEF](Ac)W[Phe(4-COOH)]G[Pro(4R-NH2)][Trp(4-Cl)(βS-Me)]D[dNMeA]G[Bip(4'-COOH)]W[Dap(Me2)][dA][hTyr])), 9.94.
With `COCC[C@@H]1NC(=O)[C@H](Cc2c[nH]c3ccccc23)NC(=O)[C@H](Cc2ccc(-c3ccc(C(=O)O)cc3)cc2)NC(=O)CNC(=O)[C@@H](C)N(C)C(=O)[C@H](CC(=O)O)NC(=O)[C@H]([C@@H](C)c2c[nH]c3cccc(Cl)c23)NC(=O)[C@@H]2C[C@@H](N)CN2C(=O)CNC(=O)[C@H](Cc2ccc(C(=O)O)cc2)NC(=O)[C@H](Cc2c[nH]c3ccccc23)NC(=O)[C@H](Cc2ccc(OCCNC(C)=O)cc2)NC(=O)[C@H](CCc2ccc(O)cc2)NC(=O)[C@@H](C)NC1=O` [Example 147] (cyclo([AEF](Ac)W[Phe(4-COOH)]G[Pro(4R-NH2)][Trp(4-Cl)(βS-Me)]D[dNMeA]G[Bip(4'-COOH)]W[hSer](Me)[dA][hTyr])) the figure was 10.03; with `CC(=O)NCCOc1ccc(C[C@@H]2NC(=O)[C@H](CCc3ccc(O)cc3)NC(=O)[C@@H](C)NC(=O)[C@H](CC(C)C)NC(=O)[C@H](Cc3c[nH]c4ccccc34)NC(=O)[C@H](Cc3ccc(-c4ccc(C(=O)O)cc4)cc3)NC(=O)CNC(=O)[C@@H](C)N(C)C(=O)[C@H](CC(=O)O)NC(=O)[C@H]([C@@H](C)c3c[nH]c4cccc(Cl)c34)NC(=O)[C@@H]3C[C@@H](N)CN3C(=O)CNC(=O)[C@H](Cc3ccc(C(=O)O)cc3)NC(=O)[C@H](Cc3c[nH]c4ccccc34)NC2=O)cc1` [Example 148] (cyclo([AEF](Ac)W[Phe(4-COOH)]G[Pro(4R-NH2)][Trp(4-Cl)(βS-Me)]D[dNMeA]G[Bip(4'-COOH)]WL[dA][hTyr])), 10.32.
Turning to `CC(=O)NCCOc1ccc(C[C@@H]2NC(=O)[C@H](CCc3ccc(O)cc3)NC(=O)[C@@H](CCN)NC(=O)[C@H](CC(C)C)NC(=O)[C@H](Cc3c[nH]c4ccccc34)NC(=O)[C@H](Cc3ccc(-c4ccc(C(=O)O)cc4)cc3)NC(=O)CNC(=O)[C@@H](C)N(C)C(=O)[C@H](CC(=O)O)NC(=O)[C@H]([C@@H](C)c3c[nH]c4cccc(Cl)c34)NC(=O)[C@@H]3C[C@@H](N)CN3C(=O)CNC(=O)[C@H](Cc3ccc(C(=O)O)cc3)NC(=O)[C@H](Cc3c[nH]c4ccccc34)NC2=O)cc1` [Example 149] (cyclo([AEF](Ac)W[Phe(4-COOH)]G[Pro(4R-NH2)][Trp(4-Cl)(βS-Me)]D[dNMeA]G[Bip(4'-COOH)]WL[dDab][hTyr])), the negative logarithm of the IC50 (pIC50) is 9.09.
The same measure for `CC(=O)NCCOc1ccc(C[C@@H]2NC(=O)[C@H](CCc3ccccc3)NC(=O)[C@@H](C)NC(=O)[C@H](CO)NC(=O)[C@H](Cc3c[nH]c4ccccc34)NC(=O)[C@H](Cc3ccc(-c4ccc(C(=O)O)cc4)cc3)NC(=O)CNC(=O)[C@@H](C)N(C)C(=O)[C@H](CC(=O)O)NC(=O)[C@H]([C@@H](C)c3c[nH]c4cccc(Cl)c34)NC(=O)[C@@H]3C[C@@H](N)CN3C(=O)CNC(=O)[C@H](Cc3ccc(C(=O)O)cc3)NC(=O)[C@H](Cc3c[nH]c4ccccc34)NC2=O)cc1` [Example 150] (cyclo([AEF](Ac)W[Phe(4-COOH)]G[Pro(4R-NH2)][Trp(4-Cl)(βS-Me)]D[dNMeA]G[Bip(4'-COOH)]WS[dA][hPhe])): 10.20.

What is called pIC50 is the IC50 on a negative log10 scale, so that one unit is a factor of ten.
